Laboratory results taken from US20250197372A1 (priority 2020, published 2025).
Read-outs that look alike come from different tables or passages of the source.

Experiments:
Type in all cases: biochemical
[1] = target: rat sucrase (partially purified alpha-glucosidase from intestinal rat powder) (Rattus norvegicus, UniProt P23739); experiment: Intestinal alpha-glucosidase assay, sucrose substrate (Glucose GO Kit)
In short: (§1)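 Rat intestinal enzyme prep + test cpd dilutions, 60 min 37 °C; add maltose (maltase) or sucrose (sucrase), 30 min 37 °C; stop 90 °C 5 min. Glucose readout (glucose oxidase kit). IC50 from 4-PL fit of % inhibition vs conc.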

[2] = target: T1, recombinant human GBA (beta-glucocerebrosidase) (Homo sapiens, UniProt P04062); experiment: Beta-glucocerebrosidase (GBA, glucosylceramidase) assay (4-methylumbelliferyl-beta-D-pyranoside substrate, fluorescence)
T1 sequence (P04062 40-536): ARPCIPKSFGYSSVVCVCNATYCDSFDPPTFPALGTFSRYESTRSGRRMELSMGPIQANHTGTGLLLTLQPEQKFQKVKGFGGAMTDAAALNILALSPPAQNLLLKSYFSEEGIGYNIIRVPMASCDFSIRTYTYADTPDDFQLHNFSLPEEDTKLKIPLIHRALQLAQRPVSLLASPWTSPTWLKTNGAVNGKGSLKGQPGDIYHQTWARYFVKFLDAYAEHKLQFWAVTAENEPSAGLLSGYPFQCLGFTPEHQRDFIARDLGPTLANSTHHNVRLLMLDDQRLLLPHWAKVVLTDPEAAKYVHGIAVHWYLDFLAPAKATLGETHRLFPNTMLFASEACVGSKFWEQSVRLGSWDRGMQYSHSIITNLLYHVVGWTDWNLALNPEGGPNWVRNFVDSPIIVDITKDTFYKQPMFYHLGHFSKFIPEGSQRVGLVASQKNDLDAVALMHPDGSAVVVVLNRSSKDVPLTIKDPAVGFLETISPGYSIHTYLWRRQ
In short: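 Recombinant human GBA preincubated with compound dilutions 60 min at 37 °C, then 4-methylumbelliferyl-beta-D-pyranoside added for 60 min at 37 °C. Stopped at pH 10 (glycine/NaOH); fluorescence ex 365/em 440 nm. IC50 from 4-PL fit of inhibition relative to untreated enzyme.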

[3] = target: T2, recombinant alpha-glucosidase II (murine full-length glucosidase II, alpha and beta subunits, Glu 2) (Mus musculus, UniProt Q8BHN3); experiment: Alpha-glucosidase II assay (4-methylumbelliferyl-alpha-D-pyranoside substrate, fluorescence)
T2 construct: made in house; host or cells: HEK-293T cells transduced with BacMam viruses (75% alpha, 25% beta); protein harvested from culture supernatant
T2 sequence (O08795 15-521): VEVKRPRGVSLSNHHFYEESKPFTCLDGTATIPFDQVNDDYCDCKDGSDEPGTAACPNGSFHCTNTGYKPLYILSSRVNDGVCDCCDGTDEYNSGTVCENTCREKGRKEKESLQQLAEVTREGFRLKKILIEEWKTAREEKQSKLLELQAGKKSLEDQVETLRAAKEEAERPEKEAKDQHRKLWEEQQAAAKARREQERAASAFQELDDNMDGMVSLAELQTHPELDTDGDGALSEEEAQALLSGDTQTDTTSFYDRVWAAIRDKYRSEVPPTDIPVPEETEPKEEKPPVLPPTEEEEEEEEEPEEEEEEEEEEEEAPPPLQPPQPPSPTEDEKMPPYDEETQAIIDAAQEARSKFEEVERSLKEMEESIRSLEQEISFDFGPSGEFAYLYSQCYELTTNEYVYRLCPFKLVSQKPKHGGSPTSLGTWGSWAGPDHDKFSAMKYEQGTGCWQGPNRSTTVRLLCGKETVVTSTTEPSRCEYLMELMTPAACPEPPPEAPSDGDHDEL
T2 sequence (Q8BHN3 33-944): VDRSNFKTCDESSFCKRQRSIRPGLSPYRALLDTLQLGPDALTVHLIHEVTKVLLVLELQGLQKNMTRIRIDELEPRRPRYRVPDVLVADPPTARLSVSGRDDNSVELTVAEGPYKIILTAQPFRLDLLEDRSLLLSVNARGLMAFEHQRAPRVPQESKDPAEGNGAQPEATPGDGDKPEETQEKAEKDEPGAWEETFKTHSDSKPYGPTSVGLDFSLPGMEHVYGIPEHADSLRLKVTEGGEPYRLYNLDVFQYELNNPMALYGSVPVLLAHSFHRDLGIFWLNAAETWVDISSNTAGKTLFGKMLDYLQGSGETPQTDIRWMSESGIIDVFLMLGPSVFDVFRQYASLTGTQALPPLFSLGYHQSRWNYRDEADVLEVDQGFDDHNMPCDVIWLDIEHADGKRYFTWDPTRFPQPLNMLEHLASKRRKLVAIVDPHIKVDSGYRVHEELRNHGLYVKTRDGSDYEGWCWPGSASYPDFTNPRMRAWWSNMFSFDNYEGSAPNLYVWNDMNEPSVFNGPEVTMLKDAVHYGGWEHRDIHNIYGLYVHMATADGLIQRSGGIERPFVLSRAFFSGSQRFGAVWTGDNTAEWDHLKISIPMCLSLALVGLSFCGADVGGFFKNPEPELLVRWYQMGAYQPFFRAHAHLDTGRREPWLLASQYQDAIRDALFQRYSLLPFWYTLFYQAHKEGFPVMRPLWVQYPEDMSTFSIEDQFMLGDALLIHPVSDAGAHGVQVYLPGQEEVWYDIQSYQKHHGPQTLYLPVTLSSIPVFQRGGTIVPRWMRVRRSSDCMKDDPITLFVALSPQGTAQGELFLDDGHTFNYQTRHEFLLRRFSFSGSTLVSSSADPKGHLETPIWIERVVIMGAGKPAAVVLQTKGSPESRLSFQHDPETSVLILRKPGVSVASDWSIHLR

[4] = target: recombinant human GAA (acid alpha-glucosidase) (Homo sapiens, UniProt P10253); experiment: Acid alpha-glucosidase (GAA) assay (4-methylumbelliferyl-alpha-D-pyranoside substrate, fluorescence)
In short: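 Recombinant human enzyme preincubated 60 min at 37 °C with compound dilutions, then 4-methylumbelliferyl-alpha-D-pyranoside substrate added for 20 min at 37 °C. Stopped with glycine/NaOH pH 10; methylumbelliferone fluorescence (ex 365, em 440 nm) versus untreated enzyme; IC50 by 4-PL fit.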

[5] = target: rat maltase (partially purified alpha-glucosidase from intestinal rat powder); experiment: Intestinal alpha-glucosidase assay, maltose substrate (Glucose GO Kit)
In short: as §1

[6] = Glucosidase 2, read-out: Glu2 IC50

Chain of rat sucrase (partially purified alpha-glucosidase from intestinal rat powder) (P23739 whole entry): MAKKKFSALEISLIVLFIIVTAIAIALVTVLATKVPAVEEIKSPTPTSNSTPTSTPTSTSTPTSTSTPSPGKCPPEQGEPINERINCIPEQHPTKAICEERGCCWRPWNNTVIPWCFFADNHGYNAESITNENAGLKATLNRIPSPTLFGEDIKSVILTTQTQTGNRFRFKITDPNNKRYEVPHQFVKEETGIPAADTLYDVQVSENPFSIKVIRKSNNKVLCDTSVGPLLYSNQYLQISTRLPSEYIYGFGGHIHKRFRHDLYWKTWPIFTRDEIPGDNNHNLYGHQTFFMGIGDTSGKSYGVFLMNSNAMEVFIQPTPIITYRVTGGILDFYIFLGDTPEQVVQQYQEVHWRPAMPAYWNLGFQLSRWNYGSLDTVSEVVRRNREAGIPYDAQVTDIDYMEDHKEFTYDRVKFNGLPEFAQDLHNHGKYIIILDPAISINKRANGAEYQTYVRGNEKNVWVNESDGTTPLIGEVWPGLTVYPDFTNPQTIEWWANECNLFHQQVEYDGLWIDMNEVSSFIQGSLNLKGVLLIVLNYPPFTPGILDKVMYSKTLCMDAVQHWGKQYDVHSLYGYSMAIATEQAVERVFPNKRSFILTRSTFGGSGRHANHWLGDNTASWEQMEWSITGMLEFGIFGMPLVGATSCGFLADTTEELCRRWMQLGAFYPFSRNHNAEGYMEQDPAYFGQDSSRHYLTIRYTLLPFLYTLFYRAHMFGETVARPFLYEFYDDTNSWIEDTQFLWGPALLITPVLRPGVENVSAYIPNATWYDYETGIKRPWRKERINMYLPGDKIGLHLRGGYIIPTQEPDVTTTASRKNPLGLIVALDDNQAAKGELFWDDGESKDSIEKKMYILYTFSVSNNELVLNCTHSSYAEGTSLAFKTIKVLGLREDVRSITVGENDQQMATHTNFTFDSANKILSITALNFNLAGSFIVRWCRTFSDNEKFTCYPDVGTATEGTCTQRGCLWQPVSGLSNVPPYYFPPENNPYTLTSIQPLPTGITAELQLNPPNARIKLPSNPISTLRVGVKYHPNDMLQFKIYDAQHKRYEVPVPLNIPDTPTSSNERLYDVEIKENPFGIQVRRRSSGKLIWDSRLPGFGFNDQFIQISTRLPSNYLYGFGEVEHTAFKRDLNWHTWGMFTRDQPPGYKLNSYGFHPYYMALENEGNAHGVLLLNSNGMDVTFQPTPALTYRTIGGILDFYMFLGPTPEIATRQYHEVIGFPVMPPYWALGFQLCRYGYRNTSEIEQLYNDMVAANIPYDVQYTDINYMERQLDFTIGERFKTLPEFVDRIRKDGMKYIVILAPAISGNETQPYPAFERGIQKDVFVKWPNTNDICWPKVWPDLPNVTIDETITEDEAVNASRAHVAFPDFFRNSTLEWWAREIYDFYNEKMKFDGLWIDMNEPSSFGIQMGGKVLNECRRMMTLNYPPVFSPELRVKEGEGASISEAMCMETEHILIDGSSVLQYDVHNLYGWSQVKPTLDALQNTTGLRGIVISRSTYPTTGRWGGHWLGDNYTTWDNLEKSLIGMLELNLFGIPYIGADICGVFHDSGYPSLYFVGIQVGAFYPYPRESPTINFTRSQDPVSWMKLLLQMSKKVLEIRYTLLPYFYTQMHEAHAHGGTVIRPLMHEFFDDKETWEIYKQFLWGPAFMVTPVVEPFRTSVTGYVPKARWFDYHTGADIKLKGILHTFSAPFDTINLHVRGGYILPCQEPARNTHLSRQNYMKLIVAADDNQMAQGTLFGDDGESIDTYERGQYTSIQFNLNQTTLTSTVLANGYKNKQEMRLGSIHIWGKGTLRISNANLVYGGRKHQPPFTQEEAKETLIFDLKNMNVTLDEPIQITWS

## OC[C@@H]1[C@@H](O)[C@H](O)[C@@H](O)CN1Cc1ccc(CNc2cc(-c3cccnn3)cc(C3CC3)c2)cc1 [Compound 1012, (2R,3R,4R,5S)-1-{[4-({[3-cyclopropyl-5-(pyridazin-3-yl)phenyl]amino}methyl)phenyl]methyl}-2-(hydroxymethyl)piperidine-3,4,5-triol]
[1]
  IC50: 33 nM
[2]
  IC50: 32300 nM
[3]; [6]
  IC50: 1320 nM
[4]
  IC50: 350 nM
[5]
  IC50: 9 nM

## OC[C@@H]1[C@@H](O)[C@H](O)[C@@H](O)CN1CCCCCCNc1ccc(-c2cccnn2)cc1Cl [Compound 1202, (2R,3R,4R,5S)-1-(6-{[2-chloro-4-(pyridazin-3-yl)phenyl]amino}hexyl)-2-(hydroxymethyl)piperidine-3,4,5-triol]
[1]
  IC50: < 1 nM
[2]
  IC50: 3010 nM
[3]; [6]
  IC50: < 1 nM
[4]
  IC50: 39 nM
[5]
  IC50: < 1 nM

## COc1cc(NCCCCCCN2C[C@H](O)[C@@H](O)[C@H](O)[C@H]2CO)cc(-c2ccccc2)c1 [Compound 1150, (2R,3R,4R,5S)-2-(hydroxymethyl)-1-[6-({5-methoxy-[1,1′-biphenyl]-3-yl}amino)hexyl]piperidine-3,4,5-triol]
[1]
  IC50: < 1 nM
[2]
  IC50: 193 nM
[3]; [6]
  IC50: < 1 nM
[4]
  IC50: 45 nM
[5]
  IC50: < 1 nM

## OC[C@@H]1[C@@H](O)[C@H](O)[C@@H](O)CN1Cc1ccc(CNc2cc(C3CC3)cc(N3CCOCC3)c2)cc1 [Compound 1010, (2R,3R,4R,5S)-1-{[4-({[3-cyclopropyl-5-(morpholin-4-yl)phenyl]amino}methyl)phenyl]methyl}-2-(hydroxymethyl)piperidine-3,4,5-triol]
[1]
  IC50: 96 nM
[2]
  IC50: > 100000 nM
[3]; [6]
  IC50: 1070 nM
[4]
  IC50: 359 nM
[5]
  IC50: 12 nM

## OC[C@@H]1[C@@H](O)[C@H](O)[C@@H](O)CN1CCc1ccc(CCNc2cc(Cl)cc(-c3ncon3)c2)cc1 [Compound 1113, (2R,3R,4R,5S)-1-{2-[4-(2-{[3-chloro-5-(1,2,4-oxadiazol-3-yl)phenyl]amino}ethyl)phenyl]ethyl}-2-(hydroxymethyl)piperidine-3,4,5-triol]
[1]
  IC50: 74 nM
[2]
  IC50: 6290 nM
[3]
  IC50: 296 nM
[4]
  IC50: 380 nM
[5]
  IC50: 20 nM

## O=Cc1cc(-c2ncccn2)ccc1NCCCCCCN1C[C@H](O)[C@@H](O)[C@H](O)[C@H]1CO [Compound 1184, 5-(pyrimidin-2-yl)-2-({6-[(2R,3R,4R,5S)-3,4,5-trihydroxy-2-(hydroxymethyl)piperidin-1-yl]hexyl}amino)benzaldehyde]
[1]
  IC50: 65 nM
[2]
  IC50: 950 nM
[3]; [6]
  IC50: 1 nM
[4]
  IC50: 48 nM
[5]
  IC50: 6 nM

## [N-]=[N+]=Nc1ccc(NCc2ccc(-c3ccc(CN4C[C@H](O)[C@@H](O)[C@H](O)[C@H]4CO)cc3)cc2)c([N+](=O)[O-])c1 [Compound 1166, (2R,3R,4R,5S)-1-[(4′-{[(4-azido-2-nitrophenyl)amino]methyl}-[1,1′-biphenyl]-4-yl)methyl]-2-(hydroxymethyl)piperidine-3,4,5-triol]
[1]
  IC50: 156 nM
[2]
  IC50: 5630 nM
[3]; [6]
  IC50: 2010 nM
[4]
  IC50: 1380 nM
[5]
  IC50: < 1 nM

## CS(=O)(=O)c1cc(Br)cc(NCc2cccc(CN3C[C@H](O)[C@@H](O)[C@H](O)[C@H]3CO)c2)c1 [Compound 1022, (2R,3R,4R,5S)-1-[(3-{[(3-bromo-5-methanesulfonylphenyl)amino]methyl}phenyl)methyl]-2-(hydroxymethyl)piperidine-3,4,5-triol]
[1]
  IC50: 26 nM
[2]
  IC50: 90400 nM
[3]; [6]
  IC50: 7920 nM
[4]
  IC50: 803 nM
[5]
  IC50: 28 nM

## CC(C)(C)c1cc(NCCCCCCN2C[C@H](O)[C@@H](O)[C@H](O)[C@H]2CO)cc(-c2ncccn2)c1 [Compound 1151, (2R,3R,4R,5S)-1-(6-{[3-tert-butyl-5-(pyrimidin-2-yl)phenyl]amino}hexyl)-2-(hydroxymethyl)piperidine-3,4,5-triol]
[1]
  IC50: < 1 nM
[2]
  IC50: 299 nM
[3]; [6]
  IC50: < 1 nM
[4]
  IC50: 24 nM
[5]
  IC50: < 1 nM

## Cc1cc(-c2ccco2)ccc1NCc1ccc(CN2C[C@H](O)[C@@H](O)[C@H](O)[C@H]2CO)cc1 [Compound 1324, (2R,3R,4R,5S)-1-{[4-({[4-(furan-2-yl)-2-methylphenyl]amino}methyl)phenyl]methyl}-2-(hydroxymethyl)piperidine-3,4,5-triol]
[1]
  IC50: < 1 nM
[2]
  IC50: 33700 nM
[3]; [6]
  IC50: 318 nM
[4]
  IC50: 80 nM
[5]
  IC50: < 1 nM

## COc1cc(C#N)cc(NCCc2ccc(CCN3C[C@H](O)[C@@H](O)[C@H](O)[C@H]3CO)cc2)c1 [Compound 1133, 3-methoxy-5-{[2-(4-{2-[(2R,3R,4R,5S)-3,4,5-trihydroxy-2-(hydroxymethyl)piperidin-1-yl]ethyl}phenyl)ethyl]amino}benzonitrile]
[1]
  IC50: 237 nM
[2]
  IC50: 4500 nM
[3]; [6]
  IC50: 5 nM
[4]
  IC50: 542 nM
[5]
  IC50: 97 nM

## [N-]=[N+]=Nc1ccc(NCc2cc(CCN3C[C@H](O)[C@@H](O)[C@H](O)[C@H]3CO)cs2)c([N+](=O)[O-])c1 [Compound 1174, (2R,3R,4R,5S)-1-[2-(5-{[(4-azido-2-nitrophenyl)amino]methyl}thiophen-3-yl)ethyl]-2-(hydroxymethyl)piperidine-3,4,5-triol]
[1]
  IC50: 1 nM
[2]
  IC50: 805 nM
[3]; [6]
  IC50: < 1 nM
[4]
  IC50: 230 nM
[5]
  IC50: < 1 nM

## COc1cc(NCCCCCCN2C[C@H](O)[C@@H](O)[C@H](O)[C@H]2CO)cc(C2CCCO2)c1 (stereo partly drawn) [Compound 1146, (2R,3R,4R,5S)-2-(hydroxymethyl)-1-(6-{[3-methoxy-5-(oxolan-2-yl)phenyl]amino}hexyl)piperidine-3,4,5-triol]
[1]
  IC50: 92 nM
[2]
  IC50: 2170 nM
[3]; [6]
  IC50: 15 nM
[4]
  IC50: 68 nM
[5]
  IC50: 23 nM

## [N-]=[N+]=Nc1ccc(NCCc2nccc(CCN3C[C@H](O)[C@@H](O)[C@H](O)[C@H]3CO)n2)c([N+](=O)[O-])c1 [Compound 1188, (2R,3R,4R,5S)-1-[2-(2-{2-[(4-azido-2-nitrophenyl)amino]ethyl}pyrimidin-4-yl)ethyl]-2-(hydroxymethyl)piperidine-3,4,5-triol]
[1]
  IC50: 783 nM
[2]
  IC50: 9050 nM
[3]; [6]
  IC50: 1140 nM
[4]
  IC50: 838 nM
[5]
  IC50: 164 nM

## OC[C@@H]1[C@@H](O)[C@H](O)[C@@H](O)CN1CCCCCCNc1cc(-c2ncccn2)cc(C(F)(F)F)c1 [Compound 1131, (2R,3R,4R,5S)-2-(hydroxymethyl)-1-(6-{[3-(pyrimidin-2-yl)-5-(trifluoromethyl)phenyl]amino}hexyl)piperidine-3,4,5-triol]
[1]
  IC50: 40 nM
[2]
  IC50: 308 nM
[3]; [6]
  IC50: 3 nM
[4]
  IC50: 25 nM
[5]
  IC50: 8 nM

## CS(=O)(=O)c1cc(NCc2cccc(CN3C[C@H](O)[C@@H](O)[C@H](O)[C@H]3CO)c2)cc(-c2ncccn2)c1 [Compound 1041, (2R,3R,4R,5S)-2-(hydroxymethyl)-1-{[3-({[3-methanesulfonyl-5-(pyrimidin-2-yl)phenyl]amino}methyl)phenyl]methyl}piperidine-3,4,5-triol]
[1]
  IC50: 187 nM
[2]
  IC50: > 100000 nM
[3]; [6]
  IC50: 7180 nM
[4]
  IC50: 1880 nM
[5]
  IC50: 79 nM
